The results in this text go back to paper PMC12615753, “Glutathione as a taste modulator: molecular mechanisms of interaction with umami and sweet taste receptors” (Food Chemistry: Molecular Sciences, 2025).

Holding throughout (assay type): cell-based, human, rat
The target in assay [1] is T1, hTAS1R1/rTAS1R3 (UniProt Q7RTX1+Q923K1).
T1 construct: UniProtKB number Q7RTX1–1); The cDNA coding region of rTAS1R3 was synthesized with optimized-codon usage for human expression; expressed in transfected cells; host or cells: HEK293T/17 (ATCC CRL-11268)
T1 sequence (Q7RTX1 21-841): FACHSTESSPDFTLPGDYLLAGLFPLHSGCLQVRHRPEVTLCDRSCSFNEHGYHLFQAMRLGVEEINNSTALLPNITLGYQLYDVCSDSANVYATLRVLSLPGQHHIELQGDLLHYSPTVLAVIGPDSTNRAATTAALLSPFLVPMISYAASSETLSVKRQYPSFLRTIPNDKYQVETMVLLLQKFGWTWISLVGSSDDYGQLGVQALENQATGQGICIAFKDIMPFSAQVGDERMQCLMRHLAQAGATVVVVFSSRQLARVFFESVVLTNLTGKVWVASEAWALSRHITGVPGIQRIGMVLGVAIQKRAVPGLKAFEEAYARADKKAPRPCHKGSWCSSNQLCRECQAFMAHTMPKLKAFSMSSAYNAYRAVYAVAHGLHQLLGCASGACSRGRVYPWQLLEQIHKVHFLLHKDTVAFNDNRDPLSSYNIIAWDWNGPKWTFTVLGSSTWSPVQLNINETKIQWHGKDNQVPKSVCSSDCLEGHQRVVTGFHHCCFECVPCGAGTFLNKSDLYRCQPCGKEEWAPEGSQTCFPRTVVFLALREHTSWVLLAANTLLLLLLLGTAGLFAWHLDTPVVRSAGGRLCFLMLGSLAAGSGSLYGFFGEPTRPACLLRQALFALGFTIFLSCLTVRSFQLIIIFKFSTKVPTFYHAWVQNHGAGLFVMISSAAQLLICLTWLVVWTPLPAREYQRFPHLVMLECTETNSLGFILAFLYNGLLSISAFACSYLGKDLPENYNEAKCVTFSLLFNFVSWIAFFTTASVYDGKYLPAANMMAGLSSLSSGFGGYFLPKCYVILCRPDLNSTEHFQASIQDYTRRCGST
T1 sequence (Q923K1 21-858): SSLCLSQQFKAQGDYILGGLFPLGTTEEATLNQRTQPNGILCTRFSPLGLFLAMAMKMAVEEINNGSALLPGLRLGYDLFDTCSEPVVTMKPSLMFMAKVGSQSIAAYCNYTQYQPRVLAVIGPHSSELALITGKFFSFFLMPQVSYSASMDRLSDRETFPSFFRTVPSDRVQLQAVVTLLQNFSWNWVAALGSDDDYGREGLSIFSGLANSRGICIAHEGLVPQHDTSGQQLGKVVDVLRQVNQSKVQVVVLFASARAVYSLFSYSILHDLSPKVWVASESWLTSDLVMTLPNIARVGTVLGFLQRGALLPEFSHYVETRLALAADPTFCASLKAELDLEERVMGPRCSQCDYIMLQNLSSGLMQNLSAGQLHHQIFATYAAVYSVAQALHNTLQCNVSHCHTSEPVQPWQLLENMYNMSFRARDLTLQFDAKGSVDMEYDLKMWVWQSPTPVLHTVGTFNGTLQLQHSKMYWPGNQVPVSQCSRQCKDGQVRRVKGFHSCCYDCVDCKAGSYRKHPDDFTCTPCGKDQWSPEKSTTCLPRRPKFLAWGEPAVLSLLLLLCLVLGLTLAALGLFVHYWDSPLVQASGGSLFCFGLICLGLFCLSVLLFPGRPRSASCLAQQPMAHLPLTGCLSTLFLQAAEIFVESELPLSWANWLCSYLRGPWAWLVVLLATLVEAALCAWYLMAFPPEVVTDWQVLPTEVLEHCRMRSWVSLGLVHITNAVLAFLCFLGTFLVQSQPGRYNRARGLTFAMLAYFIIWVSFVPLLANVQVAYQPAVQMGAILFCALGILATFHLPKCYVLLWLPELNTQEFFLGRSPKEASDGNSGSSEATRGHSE
The experiment in a line: Calcium assay (GCaMP6s, Gα15i2) in transiently transfected HEK293T/17 cells. As for the experimental part: To this end, hTAS1R1/rTAS1R3 and the chimeric G protein Gα15i2 were transiently expressed in HEK293T cells. Cellular responses were assessed via calcium imaging using a fluorescent protein calcium biosensor (GCaMP6s) and compared with those of mock-transfected cells.

For assay [2], the target named is T2, hTAS1R2/rTAS1R3(Mut2) (UniProt Q8TE23+Q923K1, L72W/P67S/S282A/Y281H).
T2 construct: The cDNA coding region of rTAS1R3 was synthesized with optimized-codon usage for human expression; expressed in transfected cells
As to the kind of experiment: Calcium assay, mutated rTAS1R3 co-expressed with hTAS1R2.

Assay [3] addresses T3, hTAS1R2/rTAS1R3 (UniProt Q8TE23+Q923K1).
T3 construct: The cDNA coding region of rTAS1R3 was synthesized with optimized-codon usage for human expression; expressed in transfected cells
T3 sequence (Q8TE23 20-839): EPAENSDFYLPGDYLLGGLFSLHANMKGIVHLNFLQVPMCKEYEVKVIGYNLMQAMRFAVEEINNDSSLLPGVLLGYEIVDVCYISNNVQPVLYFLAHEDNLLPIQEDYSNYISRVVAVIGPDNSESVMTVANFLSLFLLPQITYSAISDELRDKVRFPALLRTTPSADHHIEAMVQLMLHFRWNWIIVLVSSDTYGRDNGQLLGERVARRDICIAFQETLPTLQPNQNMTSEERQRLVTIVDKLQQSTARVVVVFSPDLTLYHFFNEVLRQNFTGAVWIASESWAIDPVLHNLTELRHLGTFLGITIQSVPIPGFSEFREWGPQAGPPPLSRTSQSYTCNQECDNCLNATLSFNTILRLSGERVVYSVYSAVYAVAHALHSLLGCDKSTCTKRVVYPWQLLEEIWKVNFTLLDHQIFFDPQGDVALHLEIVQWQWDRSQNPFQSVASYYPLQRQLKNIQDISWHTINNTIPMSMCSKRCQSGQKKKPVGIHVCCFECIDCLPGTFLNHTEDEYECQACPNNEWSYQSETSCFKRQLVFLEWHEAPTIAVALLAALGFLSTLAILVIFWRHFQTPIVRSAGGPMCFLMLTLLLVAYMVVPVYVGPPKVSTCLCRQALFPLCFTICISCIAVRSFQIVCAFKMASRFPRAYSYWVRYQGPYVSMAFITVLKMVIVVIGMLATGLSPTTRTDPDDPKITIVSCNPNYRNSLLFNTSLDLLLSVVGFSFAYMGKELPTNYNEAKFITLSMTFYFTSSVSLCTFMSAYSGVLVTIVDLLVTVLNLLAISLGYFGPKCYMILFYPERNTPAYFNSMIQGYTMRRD
T3 sequence (Q923K1 21-858): T1 sequence (Q923K1 21-858)
The experiment in a line: Calcium assay in transfected HEK293T/17 cells, sweet taste receptor.
Protocol: HEK293T/17 cells (ATCC CRL-11268) were seeded into clear bottom black 96-well plates coated with poly-D-lysine at a density of 32500 cells/well in 100 μL of DMEM containing 4.5 g/L glucose and supplemented with penicillin/streptomycin, 2 mM GlutaMAX and 10 % dialyzed fetal bovine serum. The plates were incubated for 24 h at 37 °C and 7.3 % CO2 in a humidified atmosphere. After incubation, using Fugene® 4 K (0.46 μL/well, Promega, Illkirch, France), the cells were transiently transfected with pcDNA3-hTAS1R1-WT (60 ng/well) or TAS1R1 mutants, pcDNA4-rTAS1R3 (60 ng/well), pcDNA3-Gα15i2 (10 ng/well), and pGP-CMV-GCaMP6s (Addgene #40753; 10 ng/well) as a genetically encoded calcium indicator. Twenty-four hours after transfection, the HEK293T/17 cells were rinsed with 100 μL of C1 buffer (130 mM NaCl, 5 mM KCl, 10 mM HEPES, 2 mM CaCl2, and 5 mM sodium pyruvate, pH 7.4). For each molecule tested, a semi-logarithmic concentration range was created consisting of seven increasing concentrations and a negative control (zero dose) made of buffer C1. Binary mixtures with different molecules were also made to study potential synergy. In this case, the concentration range was tested in C1 buffer containing the other molecules to be tested. The concentration ranges varied depending on the molecule, its solubility, and its effectiveness in activating the receptor. All the solutions were made on the day of the test to prevent any oxidation of the compounds. If needed, the pH of each solution was adjusted by to pH 7.4 by adding NaOH. After 20 s of basal fluorescence calcium measurement, the cells were stimulated via automatic injection of a range of compounds in eight wells, and the signal emission was recorded for an additional 70 s, via a FlexStation 3® fluorometric microplate reader (Molecular Devices, San Jose, CA, USA). As a control, molecules were also tested on mock-transfected cells with the empty vector. The emitted fluorescence was measured at a wavelength of 510 nm after excitation at 488 nm. Each measurement was performed in duplicate on the same plate, and the experiments were carried out at least four times. Kinetic data were acquired via SoftMax Pro 5.4.6 software (Molecular Devices). For each well, the decrease in the raw fluorescence as the relative fluorescence changed was calculated as ΔF/F0. Replicates were averaged for the wells subjected to the same stimuli, the background signal was subtracted, and the fluorescence changes in mock-transfected cells were subtracted. The half-maximal effective concentration (EC50) and maximal signal amplitude (max ∆F/F0) were calculated via non-linear regression of the sigmoidal function four-parameter logistic equation [f(x) = min + (max − min)/(1 + (x/EC50)^nH)] via SigmaPlot 15.0 software (Grafiti LLC, Palo Alto, CA, USA). […]

T2 sequence (Q923K1 21-858 P67S/L72W/Y281H/S282A, one chain of several): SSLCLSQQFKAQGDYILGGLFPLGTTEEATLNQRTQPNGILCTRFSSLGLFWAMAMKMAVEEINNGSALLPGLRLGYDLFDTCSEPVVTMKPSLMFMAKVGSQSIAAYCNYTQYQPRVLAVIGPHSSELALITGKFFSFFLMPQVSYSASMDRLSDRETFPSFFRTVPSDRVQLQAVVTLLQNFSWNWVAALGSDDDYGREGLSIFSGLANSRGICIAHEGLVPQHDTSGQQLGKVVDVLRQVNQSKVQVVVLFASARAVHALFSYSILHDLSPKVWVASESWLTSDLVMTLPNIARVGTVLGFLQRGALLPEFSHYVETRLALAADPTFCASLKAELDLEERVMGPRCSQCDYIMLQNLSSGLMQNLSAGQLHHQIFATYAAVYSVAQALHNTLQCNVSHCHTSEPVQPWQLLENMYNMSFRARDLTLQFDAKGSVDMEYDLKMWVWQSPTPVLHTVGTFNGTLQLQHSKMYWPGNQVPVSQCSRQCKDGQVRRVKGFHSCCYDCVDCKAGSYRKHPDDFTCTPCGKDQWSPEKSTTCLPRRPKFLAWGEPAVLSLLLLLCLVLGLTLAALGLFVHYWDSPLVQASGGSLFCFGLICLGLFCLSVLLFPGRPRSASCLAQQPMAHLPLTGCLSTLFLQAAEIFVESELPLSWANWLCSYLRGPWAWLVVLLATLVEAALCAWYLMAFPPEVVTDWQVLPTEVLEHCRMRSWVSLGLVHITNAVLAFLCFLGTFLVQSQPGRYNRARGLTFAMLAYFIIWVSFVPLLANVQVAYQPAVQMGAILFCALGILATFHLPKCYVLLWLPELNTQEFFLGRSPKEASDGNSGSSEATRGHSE

Turning to `N[C@@H](CCC(=O)N[C@@H](CS)C(=O)NCC(=O)O)C(=O)O` [GSH, γ-L-glutamyl-L-cysteinyl-glycine], the “maximal response, fold lower than that elicited by L-Glu” value in assay [1] is recorded as 2.2 fold. In addition, the EC50 in assay [1] (GSH alone, Fig. 6C) was 3430 ± 98 µM; in assay [1] (GSH alone, Fig. 6D), 4360 ± 308 µM; in assay [1] (GSH alone, Fig. 6E), 3210 ± 138 µM; in assay [1] (WT, GSH), 2520 ± 238 µM; in assay [1] (WT, GSH alone, Fig. 4C), 4250 ± 500 µM; in assay [1] (agonist alone, Fig. 1, Fig. S2), 2150 ± 87 µM. Moreover, in assay [3] (agonist alone, Fig. 2), the EC50 came to 4060 ± 2510 µM. In assay [1] (WT, GSH), the “Max ∆F/F0” value is reported as 0.23 ± 0.01. In assay [1] (WT, GSH), the “R1 = mutant EC50/WT EC50” value was found to be 1.0. Besides, the “max ∆F/F0” value in assay [1] (agonist alone, Fig. 1, Fig. S2) is reported as 0.46 ± 0.01. The “effect on the dose-response curves to L-Glu” value in assay [1] (in the presence of 3 mM and 10 mM GSH, Fig. 6F) is “a leftward shift and a decrease in the EC50 values”. The “effect of 10 mM GSH on the response to sucralose” value in assay [2] is “not increased”. Also, the “fold decrease in the EC50 value of sucralose” value in assay [3] (in the presence of 10 mM GSH) worked out at 3 fold.

For `CCCC(CCC)NC(=O)c1ccc2c(c1)OCO2` [S807, N-(heptan-4-yl)benzo[d][1,3]dioxole-5-carboxamide, reference compound], in assay [1] (WT, S807 alone, Fig. 4E), the EC50 came out at 1.25 ± 0.12 µM. In assay [1] (agonist alone, Fig. 1, Fig. S2), the concentration giving a half-maximal response (EC50) was found to be 1.02 ± 0.08 µM and the “max ∆F/F0” value came out at 1.87 ± 0.03.

In the case of `OC[C@H]1O[C@H](O[C@]2(CCl)O[C@H](CCl)[C@@H](O)[C@@H]2O)[C@H](O)[C@@H](O)[C@H]1Cl` [sucralose, reference compound], the concentration for a half-maximal effect (EC50) in assay [2] (sucralose alone, Fig. 4A) amounted to 493 ± 114 µM; in assay [3] (WT, sucralose alone, Fig. 4A) it was 325 ± 140 µM; in assay [3] (agonist alone, Fig. 2), 251 ± 128 µM.

In general, EC50 refers to the midpoint of the concentration-response curve.
